Test results reported in patent US7053047B2, “Cyclic pentapeptides and their preparation” (Purzer Pharmaceutical Co., Ltd., priority 2002, dated 2006).
Marks after values point to notes of the source that are not given here.

Assays:
[1] = tested on: thrombus; assay: Thrombolytic effect in thrombolysis rat model (thrombus on bolt in arteriovenous polyethylene tube); type: in vivo, Wistar rat; conditions: for m, thrombus mass reduction: injected in 6 min, bolt weighed after 1 h, n = 8; for thrombolytic effect / potency (comparison in words): thrombolysis rat model, Tables 1 and 2
Procedure: The thrombolytic effect was evaluated by thrombolysis rat model.
0.1 ml Wistar rat blood was poured into a glass tube (length, 15 mm; external diameter, 5.0 mm; internal diameter, 2.5 mm) which was fixed vertically and the bottom was sealed with a rubber stopper. A stainless steel bolt was inserted quickly, the bolt diameter was 0.2 mm and the length was 12 mm. 15 min later, the bolt containing thrombus was taken out from the glass tube and weighed exactly.
Male Wistar rat weighing 220 g–280 g were anesthetized with pentobarbital sodium (80 mg/kg, i.p). The right arteria carotis communis and the left vena jugulars externa were separated. The bolt containing thrombus was put in the polyethylene tube and one end was inserted into the left vena jugulars externa. 50 IU/kg of heparin sodium was injected as anticoagulant, and the other tube end was inserted into the right arteria carotis communis. At this time the blood flowed from the right arteria carotis to the left vena jugulars externa via the polyethylene tube. Then normal saline solution, UK, GP6A (SEQ ID NO: 26), P6A (SEQ ID NO: 25) and KP6A (SEQ ID NO: 27) were injected in 6 min. The bolt was taken out and weighed after 1 h. The data are listed in Table 1 and Table 2, statistical data analysis was carried out by using student's t test, p<0.05 was considered significant.

[2] = tested on: coronary artery thrombosis; assay: Thrombolysis with tissue plasminogene activator in dogs with coronary artery thrombosis; type: in vivo; conditions: injected i.v. together with tissue plasminogene activator
Excerpt: Peptide 6A is a degradation of fibrinogen β chain analogue which has been known to increase coronary artery and femoral artery blood flow. In 1978(1), peptide 6A was first isolated and purified from the β chain of human fibrinogen by Belew et al.(2). The composition of peptide 6A was confirmed as Ala-Arg-Pro-Ala-Lys (SEQ ID NO: 25). […] In 1997, the inventors prepared peptide 6A and its analogues by solution method and observed that these peptides have good potency for relaxing vascula, lowering blood pressure and anti-thrombosis. The synthetic techniques and functions of these compounds have been described in CN Patent No. 1146458.

[3] = tested on: coronary artery and femoral artery blood flow; conditions: dogs; cited from earlier work

Cyclo(Ala-Arg-Pro-Ala-Lys) (ARPAK; cyclic; Cyclo P6A) [CycloP6A]
m, thrombus mass reduction ([1]; dosage 5 μmol/kg): 10.62 ± 3.15^a mg

Cyclo(Gly-Arg-Pro-Ala-Lys) (GRPAK; cyclic; Cyclo GP6A) [CycloGP6A]
m, thrombus mass reduction ([1]; dosage 5 μmol/kg): 8.35 ± 2.76^a mg
m, thrombus mass reduction ([1]; dosage 10 μmol/kg): 17.31 ± 4.29^a mg
m, thrombus mass reduction ([1]; dosage 20 μmol/kg): 18.38 ± 2.08^a,b,c mg
thrombolytic effect compared with UK ([1]; high concentration (>10 μmol) versus UK (2000 IU/Kg)): even better than UK
thrombolytic effect / potency (comparison in words) [1]: much more thrombolytic potency than the others

Cyclo(Lys-Arg-Pro-Ala-Lys) (KRPAK; cyclic; Cyclo KP6A) [CycloKP6A]
m, thrombus mass reduction ([1]; dosage 5 μmol/kg): 6.13 ± 2.31^a mg

H-Ala-Arg-Pro-Ala-LysOH (H-ARPAK-OH) [Compound P6A]
m, thrombus mass reduction ([1]; dosage 5 μmol/kg): 6.07 ± 2.14^a mg
parameters of thrombolysis [2]: no additional benefit on the parameters of thrombolysis
coronary artery and femoral artery blood flow [3]: increases coronary artery and femoral artery blood flow

H-Gly-Arg-Pro-Ala-LysOH (GRPAK; GP6A)
m, thrombus mass reduction ([1]; dosage 5 μmol/kg): 9.31 ± 3.94^a mg
m, thrombus mass reduction ([1]; dosage 10 μmol/kg): 13.17 ± 4.13^a mg
m, thrombus mass reduction ([1]; dosage 20 μmol/kg): 16.81 ± 544^a,b mg
thrombolytic effect / potency (comparison in words) [1]: much more thrombolytic potency than the others

H-Lys-Arg-Pro-Ala-LysOH (KRPAK; KP6A)
m, thrombus mass reduction ([1]; dosage 5 μmol/kg): 0.28 ± 2.13 mg
